Assay results: patent US11633370B2, “Use of scavengers of reactive gamma-ketoaldehydes to extend cell lifespan and healthspan” (Vanderbilt University, priority 2016, dated 2023)

Experiments:
N2 WT C. elegans [1] = assay: mtDNA copy number by qPCR, N2; assay type: in vivo; conditions: with age or with SA treatment
Description: Mitochondria lie at the center of aging biology, playing crucial roles in energy production, carbon substrate metabolism, apoptosis regulation, and redox balance and signaling. Since sirtuins play a major role in regulating mitochondrial function, the present inventors next wanted to investigate whether SA was exerting any of its effects via protection of mitochondrial processes. To investigate SA's effects on mitochondrial respiration, the present inventors administered SA to WT N2 (FIG. 5A) and non-functional SIR-2.1 mutant worms (FIG. 5B) and measured oxygen consumption rate (OCR) in whole worms over several days. […] The present inventors also examined the effect of SA treatment on mitochondrial DNA (mtDNA) integrity.
Relative mitochondrial and nuclear copy number were measured by quantitative, real-time PCR [90]. Primers for NADH dehydrogenase unit 1 (nd1) and a 164 bp region of the cox-4 gene were used in determination of mtDNA copy number. The nd1 forward primer 5′-[…]-3′ and reverse primer 5′-[…]-3′. Cox-4 forward primer 5′-GCCGACTGGAAGAACTTGTC-3′ and reverse primer 5′-[…]-3′. […] Amplified products were detected with SYBR Green (iQ™ SYBR® Green Supermix, Bio-Rad) and fluorescent signal intensities were determined by CFX96 Touch™ Real-Time PCR Detection System (Bio-Rad) by software CFX Manager™ (version 3.1). […]

VC199 [sir-2.1(ok434)] [2] = assay: Pharyngeal pumping rate, VC199; assay type: in vivo, C. elegans; conditions: increasing concentrations of SA, day 15; P=0.5
Experimental: As with the N2 strain, the present inventors treated VC199 nematodes with increasing concentrations of SA and assessed the age-dependent accumulation of autofluorescent lipofuscin granules and decrease in pharyngeal pumping rate.
C. elegans pharyngeal pumping rate assays were performed on 60-mm agar plates with bacterial lawns at room temperature. Every fifth day, worms were transferred to fresh bacteria-seeded NGM plates, and incubated at 25° C. for 10 min in order to equilibrate feeding rates before measurement. After 10 min incubation, worms were observed under the Zeiss TLB 3.1 microscope with focus on the pharynx. The number of contractions in the terminal bulb of the pharynx was counted for 20 s and then plotted.

N2 WT C. elegans [3] = assay: Pharyngeal pumping rate, N2; assay type: in vivo; conditions: increasing concentrations of SA, measured every fifth day; p<0.05
Description: To quantify this, the present inventors chose both a biochemical endpoint (lipofuscin autofluorescence) and a behavioral measure (pharyngeal pumping) that change predictably with aging and are associated with healthspan. The accumulation in the nematode intestinal epithelium of autofluorescent lipofuscin granules, a heterogeneous mixture of oxidized and crosslinked lipids and proteins and advanced glycation end products, is a known conserved phenomenon observed to increase with age. Visualization of lipofuscin granules is often used as an age-related assessment of healthspan. Lipofuscin autofluorescence were quantified over time (every 5 days) in N2 adult nematodes (10-20 per colony) in the presence of increasing doses of SA. […] For a behavioral/functional measurement of health, pharyngeal pumping rates were quantified. […] Pharyngeal pumping rates quantified in WT N2 worms established on OP50-seeded NGM agar plates with increasing concentrations of SA. The frequency of pharyngeal pumping was measured and recorded every fifth day as the animals aged.
C. elegans pharyngeal pumping rate assays were performed on 60-mm agar plates with bacterial lawns at room temperature. […] The number of contractions in the terminal bulb of the pharynx was counted for 20 s and then plotted.

[4] = tested on: intact cells exposed to hydrogen peroxide; conditions: SA pre-treatment, vehicle control 95% cell death; cited from earlier work
VC199 [sir-2.1(ok434)] [5] = assay: Longevity assay, non-functional SIR-2.1 mutant; assay type: in vivo, C. elegans; conditions: 0 μM SA 16 days, p=0.70
Experimental: A nematode strain carrying a non-functional SIR-2.1 mutation, VC199 [sir-2.1(ok434)] was treated with the same concentrations of SA as were used in lifespan experiments with WT nematodes. Starting at day 1 of adulthood, SIR-2.1 mutants were grown on SA-coated OP50-seeded NGM plates. SIR-2.1 mutant worms were transferred to freshly made SA-OP50-NGM agar plates every 2 days and survival was assessed using a platinum wire until all worms died; survival was scored as movement upon slight touch with the platinum wire (FIG. 3B). When SA was administered to the VC199 strain, the effect of extending median lifespan that had been observed in the N2 strain was entirely abolished (FIG. 3C; VC199 median lifespan: 16 days, 0 μM SA; 15 days, 50 μM SA; 15 days, 100 μM SA; 15 days, 500 μM SA; p=0.70).
C. elegans strains were cultured at 20° C. on standard nematode growth media (NGM) agar plates seeded with Escherichia coli strain NA22. The following strains were used in this work: wild-type C. elegans Bristol strain (N2), sir-2.1(ok434) IV, F19F10.5(ok888) V, and daf-16(mu86). Strains were obtained from the Caenorhabditis Genetics Center (University of Minnesota, St. Paul, Minn.). For generating cultures of 15-day-old (Day 15) adult worms, synchronized late-stage L4s/early young adult worms were transferred to peptone enriched 15 cm plates containing UV-irradiated OP50 E. coli and 0.12 mM 5-fluoro-2′-deoxyuridine (FUDR) to inhibit progeny production[88] with or without drug until harvest.
Nematodes grown on NGM-agar plates containing 0.5% peptone, were harvested, and eggs were isolated by alkaline hypochlorite with 0.5 N NaOH, 1% hypochlorite; 8 min at 23° C. […]
Survival cultures were grown on 60-mm agar plates; after the late-stage L4/young adult molt, approximately 100 adults were transferred onto SA-OP50-seeded NGM plates. […] Worms were maintained at 20° C. and live worms were counted during transfer to freshly made SA-OP50-NGM agar plates every 2-3 days. Survival was scored as movement upon slight touch with the platinum wire. […]

NCc1ccccc1O [SA, salicylamine]
mtDNA copy number relative to nuclear DNA (N2 WT C. elegans [1]): no significant difference
pharyngeal pumping rate (VC199 [sir-2.1(ok434)] [2]): failed to preserve pharyngeal pumping rate
age-associated decline in pharyngeal pumping rate (N2 WT C. elegans [3]): dose-dependent protection
occurrence in cell death [4]: 5%
median lifespan (VC199 [sir-2.1(ok434)] [5]; 50 μM SA): 15 days
median lifespan (VC199 [sir-2.1(ok434)] [5]; 100 μM SA): 15 days
median lifespan (VC199 [sir-2.1(ok434)] [5]; 500 μM SA): 15 days
